Consider 33 molecules from PMC8910697, “Development of VPC-70619, a Small-Molecule N-Myc Inhibitor as a Potential Therapy for Neuroendocrine Prostate Cancer” (International Journal of Molecular Sciences, 2022).

The subject of this assay is N-Myc-Max transcription activity (LNCaP-NMYC cells). The experiment in a line: Myc transcription assay (Cignal Myc reporter, luciferase) in LNCaP-NMYC cells. It counts as cell-based. On the set-up: 10 uM corrected / 5uM corrected: unit not given here. The conditions noted are these: for inhibition at 5 µM / inhibition at 10 µM: 24 h; for inhibition at 5 µM: read-out: % Transcript Inhibition (5 µM); for inhibition at 10 µM: read-out: % Transcript Inhibition (10 µM); for IC50: Homo sapiens, LNCaP, Table 2, transcriptional assay in LNCaP cells overexpressing N-Myc, read-out: IC50; for transcription inhibition activity (in words): screened at 10 µM and 5 µM; for 5uM corrected / 10 uM corrected: sheet 181_set. The procedure:
To determine the optimal substitutions on the free phenyl ring, we used the active scaffold for a second substructure search against the ZINC15 database to identify a set of 181 analogues for further validation (VPC-70617 to -70799, presented in Supplementary Table S1). Compounds were tested for their inhibition of a N-Myc-Max luciferase transcription activity assay at 5 and 10 µM Figure 2a. Herein, we inspected all the proposed substitutions on the scaffold to discern the features required to construct a possible SAR model for inhibitors targeting N-Myc-Max/DBD complex (Figure 2b).
LNCaP-NMYC cells were transfected using TransIT-2020 transfection reagents per the manufacturer’s protocol. Cells were plated at a density of 10,000 cells per well of a 96-well plate. Following 24 h treatment with 5 µM or 10 µM of the compounds, the Myc reporter activity was measured using the Cignal Myc Reporter Assay Kit from Qiagen (#336841) (Hilden, Germany) per the manufacturer’s instructions.

`C#Cc1ccc(C(=O)NNc2ccc(C#N)cc2C(F)(F)F)cc1` [compound 70582]: the IC50 is 8 µM. The inhibition at 5 µM (5 µM, LNCaP-NMYC) was 44%. Besides, the inhibition at 10 µM (LNCaP-NMYC) amounted to 84%.

On to `O=C(NNc1ccc(C(F)(F)F)cc1)c1ccc(C(F)(F)F)cc1` [compound 70583], for which the IC50 is > 20 µM. Also, the inhibition at 5 µM (5 µM, LNCaP-NMYC) was 8%. For the same molecule, under “LNCaP-NMYC”, the inhibition at 10 µM amounted to 28%.

With `N#Cc1ccc(C(=O)NNc2ccc(C(F)(F)F)cc2)cc1` [compound 70584], the IC50 is > 20 µM. Further, the inhibition at 5 µM (5 µM, LNCaP-NMYC) amounted to 34%. Further, the inhibition at 10 µM (LNCaP-NMYC) was 30%.

Regarding `O=C(NNc1ccccc1F)c1ccc(C(F)(F)F)cc1` [compound 70585], the IC50 is > 20 µM. For the setting “5 µM, LNCaP-NMYC”, the inhibition at 5 µM stood at 16%. Besides, where the note is “LNCaP-NMYC”, the inhibition at 10 µM is 24%.

As for `N#Cc1ccc(NNC(=O)c2ccc(C(F)(F)F)cc2)cc1` [compound 70586], the IC50 is > 20 µM. The inhibition at 5 µM (5 µM, LNCaP-NMYC) stood at 28%. In addition, under “LNCaP-NMYC”, the inhibition at 10 µM was 34% and the “transcription inhibition activity (in words)” value is “significantly reduced inhibition activity”.

For the molecule `N#Cc1ccc(NNC(=O)c2ccc(C#N)cc2)cc1` [compound 70587], for the setting “5 µM, LNCaP-NMYC”, the inhibition at 5 µM is -58%. Besides, the inhibition at 10 µM (LNCaP-NMYC) came out at 14%.

For `N#Cc1ccc(NNC(=O)c2ccc(OC(F)F)cc2)c(C(F)(F)F)c1` [compound 70588], the inhibition at 5 µM (5 µM, LNCaP-NMYC) was 32%. For the same molecule, the inhibition at 10 µM (LNCaP-NMYC) turned out to be 46%.

For the molecule `N#Cc1ccc(NNC(=O)c2ccc(I)cc2)c(C(F)(F)F)c1` [compound 70589], the IC50 is 3 µM. The inhibition at 5 µM (5 µM, LNCaP-NMYC) came out at 64%. In addition, under “LNCaP-NMYC”, the inhibition at 10 µM was found to be 94%.

In the case of `C=Cc1ccc(C(=O)NNc2ccc(C#N)cc2C(F)(F)F)cc1` [compound 70590], the IC50 was 15 µM. Moreover, the inhibition at 5 µM (5 µM, LNCaP-NMYC) was 38%. The inhibition at 10 µM (LNCaP-NMYC) was 62%.

As for `N#Cc1ccc(NNC(=O)c2ccc(F)cc2)c(C(F)(F)F)c1` [compound 70591], the IC50 amounted to 25 µM. In addition, under “5 µM, LNCaP-NMYC”, the inhibition at 5 µM worked out at 18%. Further, the inhibition at 10 µM (LNCaP-NMYC) stood at 64%.

Consider `N#Cc1ccc(C(=O)NNc2ccc(C#N)cc2C(F)(F)F)cc1` [compound 70593], for which the IC50 is 12 µM. Moreover, the inhibition at 5 µM (5 µM, LNCaP-NMYC) was -26%. For the same molecule, under “LNCaP-NMYC”, the inhibition at 10 µM is 70% and the “transcription inhibition activity (in words)” value is “significantly more active”.

For `CC(C)(C#N)c1ccc(C(=O)NNc2ccc(C#N)cc2C(F)(F)F)cc1` [compound 70594], under “5 µM, LNCaP-NMYC”, the inhibition at 5 µM came out at 22%. Also, the inhibition at 10 µM (LNCaP-NMYC) stood at 10%.

On to `CC(C)c1ccc(C(=O)NNc2ccc(C#N)cc2C(F)(F)F)cc1` [compound 70595], for which the IC50 came to 12 µM. Also, the inhibition at 5 µM (5 µM, LNCaP-NMYC) is 30%. In addition, the inhibition at 10 µM (LNCaP-NMYC) was 70%.

As for `N#Cc1ccc(NNC(=O)c2cccc(C(F)(F)F)c2)c(C(F)(F)F)c1` [compound 70596], the IC50 was 2 µM. Also, the inhibition at 5 µM (5 µM, LNCaP-NMYC) stood at 96%. Where the note is “LNCaP-NMYC”, the inhibition at 10 µM stood at 94% and the “transcription inhibition activity (in words)” value was “significantly more active”.

Consider `N#Cc1ccc(NNC(=O)c2ccc(C(F)(F)F)cc2)c(C(F)(F)F)c1` [compound 70597], for which the 50% inhibitory concentration (IC50) worked out at 12 µM. The inhibition at 5 µM (5 µM, LNCaP-NMYC) was found to be 26%. Also, the inhibition at 10 µM (LNCaP-NMYC) is 82%.

Consider `N#Cc1ccc(NNC(=O)c2ccc(Cl)cc2)c(C(F)(F)F)c1` [compound 70599], for which the IC50 was 3 µM. The inhibition at 5 µM (5 µM, LNCaP-NMYC) is 96%. Besides, where the note is “LNCaP-NMYC”, the inhibition at 10 µM was 78% and the “transcription inhibition activity (in words)” value was “significantly more active”.

For `Cc1ccc(C(=O)NNc2ccc(C#N)cc2C(F)(F)F)cc1` [compound 70600], under “5 µM, LNCaP-NMYC”, the inhibition at 5 µM was -22%. In addition, where the note is “LNCaP-NMYC”, the inhibition at 10 µM is 10%.

For the molecule `N#Cc1ccc(NNC(=O)c2ccc(C(N)=O)cc2)c(C(F)(F)F)c1` [compound 70601], the inhibition at 5 µM (5 µM, LNCaP-NMYC) was 16%. Also, the inhibition at 10 µM (LNCaP-NMYC) is -12%.

As for `N#Cc1ccc(NNC(=O)c2ccc(Br)cc2)c(C(F)(F)F)c1` [compound 70602], the inhibition at 5 µM (5 µM, LNCaP-NMYC) worked out at 12%. For the same molecule, the inhibition at 10 µM (LNCaP-NMYC) amounted to 48%.

For `N#Cc1ccc(NNC(=O)c2ccccc2)c(C(F)(F)F)c1` [compound 70603], the IC50 is > 20 µM. For the same molecule, the inhibition at 5 µM (5 µM, LNCaP-NMYC) is -30%. For the same molecule, the inhibition at 10 µM (LNCaP-NMYC) was -12%.

On to `CN(C)c1ccc(C(=O)NNc2ccc(C#N)cc2C(F)(F)F)cc1` [compound 70605], for which the inhibition at 5 µM (5 µM, LNCaP-NMYC) was -74%. The inhibition at 10 µM (LNCaP-NMYC) was 26%.

For the molecule `CC(F)(F)c1ccc(C(=O)NNc2ccccc2C(F)(F)F)cc1` [compound 70606], where the note is “5 µM, LNCaP-NMYC”, the inhibition at 5 µM was found to be 0%. Further, the inhibition at 10 µM (LNCaP-NMYC) is -10%.

Take `CC(F)(F)c1ccc(C(=O)NNc2ccc(C#N)cc2)cc1` [compound 70607]: the inhibition at 5 µM (5 µM, LNCaP-NMYC) was -20%. Under “LNCaP-NMYC”, the inhibition at 10 µM is -8%.

Regarding `CC(F)(F)c1ccc(C(=O)NNc2ccc(C#N)cc2C(F)(F)F)cc1` [compound 70608], the inhibition at 5 µM (5 µM, LNCaP-NMYC) is -14%. Besides, the inhibition at 10 µM (LNCaP-NMYC) was 38%.

On to `O=C(NNc1ccccc1C(F)(F)F)c1ccc(F)cc1` [compound 70609], for which the inhibition at 5 µM (5 µM, LNCaP-NMYC) worked out at 20%. The inhibition at 10 µM (LNCaP-NMYC) came to 12%.

Consider `O=C(NNc1ccccc1C(F)(F)F)c1ccc(C(F)(F)F)cc1` [compound 70611], for which the IC50 was > 20 µM. In addition, the inhibition at 5 µM (5 µM, LNCaP-NMYC) is -28%. Also, for the setting “LNCaP-NMYC”, the inhibition at 10 µM was 4% and the “transcription inhibition activity (in words)” value was “significantly reduced inhibition activity”.

For `Cc1cc(C(=O)NNc2ccc(C#N)cc2C(F)(F)F)ccc1Cl` [compound 70617], the 5uM corrected was 4 and the “10 uM corrected” value is 96. The “transcription inhibition activity at 5 µM (in words)” value (LNCaP-NMYC, 5 µM) is listed as “did not impart any inhibitory activity”.

Consider `N#Cc1ccc(NNC(=O)c2ccc(Cl)cc2Cl)c(C(F)(F)F)c1` [compound 70624], for which the 5uM corrected amounted to 8 and the “10 uM corrected” value is listed as 78. The “transcription inhibition activity (in words)” value (LNCaP-NMYC) is “abolished inhibitory activity”.

`Cc1ccc(C(=O)NNc2ccc(C#N)cc2C(F)(F)F)cc1Cl` [compound 70628]: the 5uM corrected is listed as 8 and the “10 uM corrected” value was found to be 90. Moreover, the “transcription inhibition activity (in words)” value (LNCaP-NMYC) is “lower transcription inhibition or no activity at all”.

For `Cc1cc(C)cc(C(=O)NNc2ccc(C#N)cc2C(F)(F)F)c1` [compound 70651], the 5uM corrected was -32 and the “10 uM corrected” value is 0. The “transcription inhibition activity (in words)” value (LNCaP-NMYC) is given as “no activity”.

Take `N#Cc1ccc(NNC(=O)c2ccc(C#N)c(O)c2)c(C(F)(F)F)c1` [compound 70673]: the 5uM corrected was -56 and the “10 uM corrected” value is -38.

`N#Cc1ccc(NNC(=O)c2ccccc2Cl)c(C(F)(F)F)c1` [compound 70701]: the 5uM corrected is given as -28 and the “10 uM corrected” value amounted to 6. Besides, the “transcription inhibition activity (in words)” value (LNCaP-NMYC) is given as “declined considerably or was lost completely”.

As for `N#Cc1ccc(NNC(=O)c2ccccc2I)c(C(F)(F)F)c1` [compound 70702], the 5uM corrected is listed as -10 and the “10 uM corrected” value was 10. Where the note is “LNCaP-NMYC”, the “transcription inhibition activity (in words)” value was “declined considerably or was lost completely”.
